Assay [1] has as its target T1, human A2B adenosine receptor (Homo sapiens, UniProt P29275).
T1 construct: gene ADORA2B; full-length receptor; membranes of HEK-293-A2B cells (Euroscreen)
T1 sequence (P29275 1-332): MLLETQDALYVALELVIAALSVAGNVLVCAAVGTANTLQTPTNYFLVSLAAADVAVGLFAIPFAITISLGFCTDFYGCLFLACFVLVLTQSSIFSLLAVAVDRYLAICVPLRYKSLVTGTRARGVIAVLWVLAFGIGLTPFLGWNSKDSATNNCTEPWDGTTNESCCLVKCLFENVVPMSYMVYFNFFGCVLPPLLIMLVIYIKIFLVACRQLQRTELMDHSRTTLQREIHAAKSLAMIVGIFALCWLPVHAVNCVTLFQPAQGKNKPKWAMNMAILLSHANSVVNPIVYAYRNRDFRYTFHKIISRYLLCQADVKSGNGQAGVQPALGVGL
Put plainly: radioligand competition, [3H]DPCPX, HEK-293-A2B membranes. The format is binding. From the text: radioligand competition, [3H]DPCPX, HEK-293-A2B membranes on human A2B adenosine receptor

The target in assay [2] is T2, human A2A adenosine receptor (Homo sapiens, UniProt P29274).
T2 construct: gene ADORA2A; full-length receptor; membranes of HeLa-A2A cells
As to the kind of experiment: radioligand competition, [3H]ZM241385, HeLa-A2A membranes. The format is binding. The source says:
radioligand competition, [3H]ZM241385, HeLa-A2A membranes on human A2A adenosine receptor

For assay [3], the target named is T3, human A1 adenosine receptor (Homo sapiens, UniProt P30542).
T3 construct: gene ADORA1; full-length receptor
T3 sequence (P30542 1-326): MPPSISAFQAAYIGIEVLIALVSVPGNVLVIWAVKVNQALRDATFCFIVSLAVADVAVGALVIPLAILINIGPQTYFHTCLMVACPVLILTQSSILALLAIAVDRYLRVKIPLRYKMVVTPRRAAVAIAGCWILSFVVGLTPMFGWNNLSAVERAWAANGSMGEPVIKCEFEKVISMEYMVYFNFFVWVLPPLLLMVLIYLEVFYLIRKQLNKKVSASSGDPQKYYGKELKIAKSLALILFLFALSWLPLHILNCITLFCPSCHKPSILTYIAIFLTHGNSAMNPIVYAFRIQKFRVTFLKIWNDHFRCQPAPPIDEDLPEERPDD
Put plainly: radioligand competition, [3H]DPCPX, CHO-A1 membranes. It counts as binding.

For assay [4], the target named is T3, human A1 adenosine receptor. Described as above. The format is binding. The source says:
radioligand competition, [3H]DPCPX, CHO-A1 membranes on human A1 adenosine receptor
The source holds these as a separate data set.

For assay [5] the target is unchanged. As to the kind of experiment: cAMP enzyme immunoassay, antagonism of NECA, CHO-A1 cells. It counts as cell-based. To be noted: read-out: Potency (pKB) / A1 (converted). The source says: cAMP enzyme immunoassay, antagonism of NECA, CHO-A1 cells on human A1 adenosine receptor
Assay [6] deals with T4, human A3 adenosine receptor (Homo sapiens, UniProt P0DMS8).
T4 construct: gene ADORA3; full-length receptor
T4 sequence (P0DMS8 1-318): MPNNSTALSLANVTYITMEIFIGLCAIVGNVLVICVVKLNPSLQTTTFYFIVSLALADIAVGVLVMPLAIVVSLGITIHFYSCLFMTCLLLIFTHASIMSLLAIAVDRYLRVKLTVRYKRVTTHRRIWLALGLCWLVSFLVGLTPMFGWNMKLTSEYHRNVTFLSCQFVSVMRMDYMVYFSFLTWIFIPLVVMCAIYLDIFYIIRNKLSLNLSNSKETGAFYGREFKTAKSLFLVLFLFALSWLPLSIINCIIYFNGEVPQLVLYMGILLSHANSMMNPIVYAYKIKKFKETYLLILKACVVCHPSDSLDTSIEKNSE
As to the kind of experiment: radioligand competition, [3H]NECA, HeLa-A3 membranes. The format is binding. From the text: radioligand competition, [3H]NECA, HeLa-A3 membranes on human A3 adenosine receptor

Assay [7] concerns the target T4, human A3 adenosine receptor. As to the kind of experiment: cAMP enzyme immunoassay, antagonism of NECA, CHO-A3 cells. It counts as cell-based. Particulars: read-out: Potency (pKB) / A3 (converted). From the text: cAMP enzyme immunoassay, antagonism of NECA, CHO-A3 cells on human A3 adenosine receptor

SMILES strings stand for the structures. Where two headings read alike, the source gives them in different places. Where only a bound is given, the exact number is not on record here.

T2 sequence (P29274 whole entry): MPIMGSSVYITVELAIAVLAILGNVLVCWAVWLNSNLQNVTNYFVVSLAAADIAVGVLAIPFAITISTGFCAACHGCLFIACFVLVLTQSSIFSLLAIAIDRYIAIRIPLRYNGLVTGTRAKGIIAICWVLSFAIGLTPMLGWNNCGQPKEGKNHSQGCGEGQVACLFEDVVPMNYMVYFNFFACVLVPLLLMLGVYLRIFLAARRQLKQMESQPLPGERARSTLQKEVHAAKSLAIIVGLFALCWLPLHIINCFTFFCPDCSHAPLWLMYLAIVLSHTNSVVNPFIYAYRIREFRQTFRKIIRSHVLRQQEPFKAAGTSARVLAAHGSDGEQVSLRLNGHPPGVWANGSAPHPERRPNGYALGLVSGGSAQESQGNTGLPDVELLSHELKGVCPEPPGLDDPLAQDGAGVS

On to `Cn1cnc2c(N3CCOCC3)nc(-c3ccccc3O)nc21` [3c, 2-(9-Methyl-6-morpholino-9H-purin-2-yl)phenol], for which the Ki in assay [1] was 2000 nM; in assay [2], 339 nM; in assay [3] (read-out: A1 (converted)), 309 nM.
For `COc1ccccc1-c1nc(N2CCOCC2)c2ncn(C)c2n1` [3b, 4-(2-(2-Methoxyphenyl)-9-methyl-9H-purin-6-yl)morpholine], testing at 10 µM in assay [4] gave an inhibition of 22 ± 1%.
Regarding `Cn1cnc2c(N3CCOCC3)nc(-c3cccc(Cl)c3)nc21` [3d, 4-(2-(3-Chlorophenyl)-9-methyl-9H-purin-6-yl)morpholine], in assay [3] (read-out: A1 (converted)), the Ki is 158 nM.
On to `Fc1ccc(F)c(-c2nc(N3CCOCC3)c3nc[nH]c3n2)c1` [3x, 4-(2-(2,5-Difluorophenyl)-9H-purin-6-yl)morpholine], for which the Kb in assay [5] is 5.62 nM. Further, the Ki in assay [1] was 36.3 nM; in assay [2] it was 70.8 nM; in assay [3] (read-out: A1 (converted)), 5.89 nM; in assay [6], 23.4 nM.
For `Oc1ccc(Cl)cc1-c1nc(N2CCOCC2)c2nc[nH]c2n1` [3u], the values for the Ki in assay [1] and in assay [3] (read-out: A1 (converted)) were 617 nM and 89.1 nM, respectively.
`Oc1ccccc1-c1nc(N2CCOCC2)c2nc[nH]c2n1` [3n, 2-(6-Morpholino-9H-purin-2-yl)phenol]: the Ki in assay [1] was 138 nM; in assay [2], 107 nM; in assay [3] (read-out: A1 (converted)), 64.6 nM; in assay [6], 257 nM.
As for `Cn1cnc2c(N3CCOCC3)nc(-c3cc(F)ccc3F)nc21` [3m, 4-(2-(2,5-Difluorophenyl)-9-methyl-9H-purin-6-yl)morpholine], in assay [3] (read-out: A1 (converted)), the Ki was 525 nM.
As for `Oc1cccc(-c2nc(N3CCOCC3)c3nc[nH]c3n2)c1` [3p, 3-(6-Morpholino-9H-purin-2-yl)phenol], the Ki is 550 nM in assay [2], 32.4 nM in assay [3] (read-out: A1 (converted)) and 468 nM in assay [6].
With `Cn1cnc2c(N3CCOCC3)nc(-c3ccccc3Cl)nc21` [3a, 4-(2-(2-Chlorophenyl)-9-methyl-9H-purin-6-yl)morpholine], 10 µM produced 36 ± 1% inhibition in assay [4].
For `COc1ccc(F)c(-c2nc(N3CCOCC3)c3ncn(C)c3n2)c1` [3l, 4-(2-(2-Fluoro-5-methoxyphenyl)-9-methyl-9H-purin-6-yl)morpholine], the Ki in assay [6] is 5250 nM.
For the compound `Cn1cnc2c(N3CCOCC3)nc(-c3cc(Cl)ccc3O)nc21` [3k, 4-Chloro-2-(9-methyl-6-morpholino-9H-purin-2-yl)phenol], the figures for the Ki in assay [2] and in assay [3] (read-out: A1 (converted)) were 708 nM and 123 nM, respectively.
Turning to `Clc1ccc(-c2nc(N3CCOCC3)c3nc[nH]c3n2)cc1` [3q, 4-(2-(4-Chlorophenyl)-9H-purin-6-yl)morpholine], the Ki is 95.5 nM in assay [3] (read-out: A1 (converted)) and 33.9 nM in assay [6].
The compound `Cn1cnc2c(N3CCOCC3)nc(-c3ccc(Cl)cc3)nc21` [3f, 4-(2-(4-Chlorophenyl)-9-methyl-9H-purin-6-yl)morpholine] came in with an inhibition at 10 µM in assay [4] of 37 ± 4%.
For `COc1ccc(F)c(-c2nc(N3CCOCC3)c3nc[nH]c3n2)c1` [3v, 4-(2-(2-Fluoro-5-methoxyphenyl)-9H-purin-6-yl)morpholine], the Ki in assay [1] is 398 nM; in assay [3] (read-out: pKi (converted)), greater than 10000 nM; in assay [6], 14.8 nM. In assay [7], the Kb was 5.75 nM.
Take `Cn1cnc2c(N3CCOCC3)nc(-c3cccc(O)c3)nc21` [3e, 3-(9-Methyl-6-morpholino-9H-purin-2-yl)phenol]: the Ki in assay [3] (read-out: A1 (converted)) is 692 nM.
Compound `Cn1cnc2c(N3CCOCC3)nc(-c3cc(Cl)ccc3Cl)nc21` [3h, 4-(2-(2,5-Dichlorophenyl)-9-methyl-9H-purin-6-yl)morpholine] gave an inhibition at 10 µM in assay [4] of 41 ± 2%.
In turn, `FC(F)(F)c1cc(-c2nc(N3CCOCC3)c3nc[nH]c3n2)ccc1Cl` [3s, 4-(2-(4-Chloro-3-(trifluoromethyl)phenyl)-9H-purin-6-yl)morpholine] gave a Ki in assay [6] of 955 nM.
In the case of `Clc1ccc(Cl)c(-c2nc(N3CCOCC3)c3nc[nH]c3n2)c1` [3t, 4-(2-(2,5-Dichlorophenyl)-9H-purin-6-yl)morpholine], the Ki in assay [3] (read-out: A1 (converted)) was 1070 nM; in assay [6] it was 69.2 nM.
Turning to `Clc1ccc(-c2nc(N3CCOCC3)c3nc[nH]c3n2)cc1Cl` [3r, 4-(2-(3,4-Dichlorophenyl)-9H-purin-6-yl)morpholine], the Ki in assay [6] was determined as 70.8 nM.
Take `Cn1cnc2c(N3CCOCC3)nc(-c3cc(O)ccc3O)nc21` [3i, 2-(9-Methyl-6-morpholino-9H-purin-2-yl)benzene-1,4-diol]: the Ki in assay [1] is 479 nM; in assay [2] it was 562 nM; in assay [3] (read-out: A1 (converted)), 437 nM.
In the same order, the values of `COc1ccc(O)c(-c2nc(N3CCOCC3)c3ncn(C)c3n2)c1` [3j, 4-Methoxy-2-(9-methyl-6-morpholino-9H-purin-2-yl)phenol] are 1660 nM, 1230 nM and 525 nM.
In the case of `Cn1cnc2c(N3CCOCC3)nc(-c3cccc(O)c3O)nc21` [3g, 3-(9-Methyl-6-morpholino-9H-purin-2-yl)benzene-1,2-diol], in assay [4], testing at 10 µM gave an inhibition of 33 ± 0.3%.
Take `Clc1cccc(-c2nc(N3CCOCC3)c3nc[nH]c3n2)c1` [3o, 4-(2-(3-Chlorophenyl)-9H-purin-6-yl)morpholine]: the Ki is 75.9 nM in assay [1], 46.8 nM in assay [2], 17.8 nM in assay [3] (read-out: A1 (converted)) and 39.8 nM in assay [6].

The values above are taken from paper PMC11173536, “2-Aryladenine Derivatives as a Potent Scaffold for Adenosine Receptor Antagonists: The 6-Morpholino Derivatives” (Molecules, 2024).
